In patent US20180099931A1 (AbbVie S.à.r.l., priority 2016, published 2018):
Where two headings read alike, the source gives them in different places.

Target: T1, F508delCFTR (Homo sapiens, UniProt P13569, DEL508-508)
T1 construct: expressed in transfected cells; host or cells: CFBE41o- human lung-derived epithelial cells (CFBE4lo-F508delCFTR-HRP), doxycycline-inducible
Assay: Cell Surface Expression-Horse Radish Peroxidase (CSE-HRP) Assay;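 for Maximum % activity (with co-corrector): co-corrector and positive control are both the same reference corrector at 2 µM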;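 for Maximum % activity (without co-corrector): percent of the 2 µM on-plate positive control corrector response above DMSO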
Assay type: cell-based
Conditions: for Emax / Maximum % activity (with co-corrector): maximum at any tested concentration, normalized to on-plate positive control; for Emax: read-out: Maximum % activity (without co-corrector)

[1] = test compound without co-corrector
[2] = test compound without co-corrector, read-out: EC50 (without co-corrector)
[3] = with co-corrector (2 μM of 3-[(2R,4R)-4-({[1-(2,2-difluoro-1,3-benzodioxol-5-yl)cyclopropyl]carbonyl}amino)-7-methoxy-3,4-dihydro-2H-chromen-2-yl]benzoic acid)
[4] = with co-corrector (2 μM of 3-[(2R,4R)-4-({[1-(2,2-difluoro-1,3-benzodioxol-5-yl)cyclopropyl]carbonyl}amino)-7-methoxy-3,4-dihydro-2H-chromen-2-yl]benzoic acid), read-out: EC50 (with co-corrector)
[5] = CSE-HRP, test compound without co-corrector, read-out: EC50 (without co-corrector)
[6] = CSE-HRP, with co-corrector (2 μM of 3-[(2R,4R)-4-({[1-(2,2-difluoro-1,3-benzodioxol-5-yl)cyclopropyl]carbonyl}amino)-7-methoxy-3,4-dihydro-2H-chromen-2-yl]benzoic acid), read-out: EC50 (with co-corrector)
[7] = CSE-HRP, with co-corrector (2 μM)

T1 sequence (P13569 with tags, fused parts or gaps DEL508-508): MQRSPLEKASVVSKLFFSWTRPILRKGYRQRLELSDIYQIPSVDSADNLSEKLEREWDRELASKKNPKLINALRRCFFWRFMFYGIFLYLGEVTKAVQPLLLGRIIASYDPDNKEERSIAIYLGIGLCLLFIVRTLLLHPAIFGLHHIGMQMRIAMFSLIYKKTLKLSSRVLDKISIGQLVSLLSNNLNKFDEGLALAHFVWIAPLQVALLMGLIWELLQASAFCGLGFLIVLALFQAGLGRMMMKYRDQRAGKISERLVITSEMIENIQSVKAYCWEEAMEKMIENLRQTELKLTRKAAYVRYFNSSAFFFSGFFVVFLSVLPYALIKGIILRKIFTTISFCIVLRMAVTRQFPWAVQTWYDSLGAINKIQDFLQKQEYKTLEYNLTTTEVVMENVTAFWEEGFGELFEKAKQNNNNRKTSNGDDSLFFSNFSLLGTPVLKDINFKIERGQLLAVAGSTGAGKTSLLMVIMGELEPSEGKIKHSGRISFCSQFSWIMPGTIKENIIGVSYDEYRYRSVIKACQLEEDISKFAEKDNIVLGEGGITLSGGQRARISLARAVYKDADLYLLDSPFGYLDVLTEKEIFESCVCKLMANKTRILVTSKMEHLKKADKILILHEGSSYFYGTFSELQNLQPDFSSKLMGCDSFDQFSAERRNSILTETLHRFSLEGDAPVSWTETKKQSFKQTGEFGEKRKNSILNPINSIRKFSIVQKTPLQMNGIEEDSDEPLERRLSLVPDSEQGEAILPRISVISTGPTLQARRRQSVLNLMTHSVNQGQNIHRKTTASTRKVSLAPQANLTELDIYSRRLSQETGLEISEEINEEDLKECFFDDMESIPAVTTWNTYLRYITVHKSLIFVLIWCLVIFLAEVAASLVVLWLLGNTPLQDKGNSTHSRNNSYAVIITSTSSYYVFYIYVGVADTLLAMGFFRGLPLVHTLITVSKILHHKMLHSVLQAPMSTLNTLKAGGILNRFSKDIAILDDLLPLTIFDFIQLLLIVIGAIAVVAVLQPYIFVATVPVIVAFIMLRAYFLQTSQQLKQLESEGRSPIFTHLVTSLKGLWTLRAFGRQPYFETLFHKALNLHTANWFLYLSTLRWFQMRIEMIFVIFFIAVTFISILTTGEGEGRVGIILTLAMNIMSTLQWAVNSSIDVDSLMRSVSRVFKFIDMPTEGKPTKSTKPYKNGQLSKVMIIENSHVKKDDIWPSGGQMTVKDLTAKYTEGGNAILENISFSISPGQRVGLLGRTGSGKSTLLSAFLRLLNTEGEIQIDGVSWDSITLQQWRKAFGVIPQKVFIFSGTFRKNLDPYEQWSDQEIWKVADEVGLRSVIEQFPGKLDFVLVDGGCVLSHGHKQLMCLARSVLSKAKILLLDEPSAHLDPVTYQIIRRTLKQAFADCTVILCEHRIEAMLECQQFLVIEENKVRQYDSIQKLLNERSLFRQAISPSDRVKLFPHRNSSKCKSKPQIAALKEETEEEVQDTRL

Row | Emax [1] [%] | EC50 [2] [nM] | Maximum % activity (with co-corrector) [3] | EC50 [4] [nM] | Maximum % activity (with co-corrector) (with co-corrector (2 μM)) | Emax (without co-corrector) [%] | EC50 [5] [nM] | EC50 [6] [nM] | Maximum % activity (with co-corrector) [7] | Emax (CSE-HRP, without co-corrector) [%] | Structure (SMILES)
1 | > 200 | 1000 to 10000 | +++ (≥350) | < 1000 |  |  |  |  |  |  | COc1ccc(C(C)(C)C)cc1CN[C@H]1[C@H](C(C)(C)C)[C@@H](C(=O)O)N(C(=O)C2CCc3cc(F)ccc3O2)[C@H]1c1ccccc1 (stereo partly shown) [II-320]
2 |  |  |  |  |  |  | 1000 to 10000 | 1000 to 10000 | +++ (≥350) | > 200 | COc1ccc(C(F)(F)F)cc1CN[C@H]1[C@H](C(C)(C)C)[C@@H](C(=O)O)N(C(=O)[C@H](OC)c2ccccc2)[C@H]1c1ccccc1N(C)C [II-62]
3 | < 100 | 1000 to 10000 |  | 1000 to 10000 | ++ (≥150 and <350) |  |  |  |  |  | COc1ncc(C(F)(F)F)cc1CN[C@H]1[C@H](C2(C)CC2)[C@@H](C(=O)O)N(C(=O)C2CCCCC2)[C@H]1c1ccccc1 [III-189]
4 |  |  |  |  |  |  | 1000 to 10000 | 1000 to 10000 | ++ (≥150 and <350) | < 100 | COC(=O)[C@H](C)Cc1cnc(OC)c(CN[C@H]2[C@H](C(C)(C)C)[C@@H](C(=O)O)N(C(=O)C3CCCCC3)[C@H]2c2ccccc2)c1 [II-159]
5 | > 200 | 1000 to 10000 |  | < 1000 | +++ (≥350) |  |  |  |  |  | COc1ccc(C(C)(C)C)cc1CN[C@H]1[C@H](C(C)(C)C)[C@@H](C(=O)O)N(C(=O)C(C)Oc2cc(C)cc(C)c2)[C@H]1c1ccccc1 (stereo partly shown) [III-190]
6 | < 100 | 1000 to 10000 | +++ (≥350) | 1000 to 10000 |  |  |  |  |  |  | COc1ccc(C(C)(C)C)cc1CN[C@H]1[C@H](C(C)(C)C)[C@@H](C(=O)O)N(C(=O)C2Cc3ccccc3CO2)[C@H]1c1cccnc1N(C)C (single isomer, unassigned) [II-480]
7 | > 200 | 1000 to 10000 | +++ (≥350) | < 1000 |  |  |  |  |  |  | COc1ccc(C(C)(C)C)cc1CN[C@H]1[C@H](C(C)(C)C)[C@@H](C(=O)O)N(C(=O)C2CCC(C)(C)C2)[C@H]1c1ccccc1 (stereo partly shown) [II-401]
8 | < 100 | 1000 to 10000 | +++ (≥350) | 1000 to 10000 |  |  |  |  |  |  | COc1ccc(C(F)(F)F)cc1CN[C@@H]1[C@@H](C(C)(C)C)[C@H](C(=O)O)N(C(=O)C2CCCCC2)[C@@H]1c1ccccn1 (racemic) [III-60]
9 |  |  |  |  |  |  | 1000 to 10000 | < 1000 | +++ (≥350) | 100 to 200 | COc1cc(C(F)(F)F)ccc1CN[C@H]1[C@H](C(C)(C)C)[C@@H](C(=O)O)N(C(=O)OCC(C)C)[C@H]1c1ccccc1 [II-161]
10 | 100 to 200 | < 1000 | +++ (≥350) | 1000 to 10000 |  |  |  |  |  |  | COc1nc(C(C)(C)C)ncc1CN[C@H]1[C@H](C(C)(C)C)[C@@H](C(=O)O)N(C(=O)C2CCCC(F)(F)C2)[C@H]1c1ccccc1 (relative stereo) [II-477]
11 | 100 to 200 | 1000 to 10000 | +++ (≥350) | 1000 to 10000 |  |  |  |  |  |  | COc1ccc(C(C)(C)C)cc1CN[C@H]1[C@H](C(C)(C)C)[C@@H](C(=O)O)N(C(=O)c2cnn3c2CCCC3)[C@H]1c1ccccc1 [II-364]
12 | 100 to 200 | 1000 to 10000 | +++ (≥350) | 1000 to 10000 |  |  |  |  |  |  | COc1ccc(C(C)(C)C)cc1CN[C@H]1[C@H](C(C)(C)C)[C@@H](C(=O)O)N(C(=O)C2CCC(F)(F)CC2)[C@H]1c1cccnc1N(C)C [II-468]
13 | < 100 | 1000 to 10000 | ++ (≥150 and <350) | 1000 to 10000 |  |  |  |  |  |  | Cc1cc(C(F)(F)F)cc(N[C@@H]2[C@@H](C(C)(C)C)[C@H](C(=O)O)N(C(=O)C3CCCCC3)[C@@H]2c2ccccc2)[n+]1[O-] (racemic) [III-32]
14 | 100 to 200 | < 1000 | +++ (≥350) | < 1000 |  |  |  |  |  |  | COc1ncc(C(F)(F)F)cc1CN[C@H]1[C@H](C(C)(C)C)[C@@H](C(=O)O)N(C(=O)C2CCC(F)(F)C2)[C@H]1c1ccccc1C(C)C (stereo partly shown) [II-589]
15 | 100 to 200 | 1000 to 10000 | +++ (≥350) | 1000 to 10000 |  |  |  |  |  |  | COc1ccc(-c2ccccc2)cc1CN[C@H]1[C@H](C(C)(C)C)[C@@H](C(=O)O)N(C(=O)[C@H]2CCCCO2)[C@H]1c1cccnc1N(C)C [II-447]
16 |  |  |  |  |  |  | 1000 to 10000 | 1000 to 10000 | +++ (≥350) | 100 to 200 | COc1ccc(-c2cccc(C#N)c2)cc1CN[C@H]1[C@H](C(C)(C)C)[C@@H](C(=O)O)N(C(=O)C2CCCCC2)[C@H]1c1ccccc1 [II-281]
17 |  |  |  |  |  |  | 1000 to 10000 | 1000 to 10000 | +++ (≥350) | > 200 | COc1ccc(C(C)(C)C)cc1CN[C@H]1[C@H](C(C)(C)C)[C@@H](C(=O)O)N(C(=O)CC2CCCOC2)[C@H]1c1ccccc1 (stereo partly shown) [II-179]
18 |  |  |  |  |  |  | 1000 to 10000 | 1000 to 10000 | +++ (≥350) | 100 to 200 | COc1cc(C(F)(F)F)ccc1CN[C@@H]1[C@@H](C(C)(C)C)[C@H](C(=O)O)N(C(=O)C2CCCCC2)[C@@H]1c1cccnc1N(C)C (racemic) [II-51]
19 |  |  |  |  |  |  | 1000 to 10000 | 1000 to 10000 | +++ (≥350) | > 200 | COc1ccc(C(C)(C)C)cc1CN[C@H]1[C@H](C(C)(C)C)[C@@H](C(=O)O)N(C(=O)C2CCC(OC)CC2)[C@H]1c1ccccc1 (stereo partly shown) [II-214]
20 | > 200 | 1000 to 10000 | +++ (≥350) | 1000 to 10000 |  |  |  |  |  |  | COc1ccc(C(C)(C)C)cc1CN[C@H]1[C@H](C(C)(C)C)[C@@H](C(=O)O)N(C(=O)[C@@H]2CCC[C@@](C)(O)C2)[C@H]1c1ccccc1 [II-533]

Continued, compound first:

Row | Structure (SMILES) | Emax [1] [%] | EC50 [2] [nM] | Maximum % activity (with co-corrector) [3] | EC50 [4] [nM] | Maximum % activity (with co-corrector) (with co-corrector (2 μM)) | Emax (without co-corrector) [%] | EC50 [5] [nM] | EC50 [6] [nM] | Maximum % activity (with co-corrector) [7] | Emax (CSE-HRP, without co-corrector) [%]
21 | COc1ccc(C23CC(C2)C3)cc1CN[C@H]1[C@H](C(C)(C)C)[C@@H](C(=O)O)N(C(=O)[C@@H]2CCCCO2)[C@H]1c1cccnc1N(C)C [Example 51, (2S,3S,4S,5S)-4-({[5-(bicyclo[1.1.1]pentan-1-yl)-2-methoxyphenyl]methyl}amino)-3-tert-butyl-5-[2-(dimethylamino)pyridin-3-yl]-1-[(2S)-oxane-2-carbonyl]pyrrolidine-2-carboxylic acid] |  | 1000 to 10000 |  | < 1000 | +++ (≥350) | > 200 |  |  |  | 
22 | COc1ccc(C(F)(F)F)cc1CN[C@H]1[C@H](C(C)(C)C)[C@@H](C(=O)O)N(C(=O)CC2CCCCO2)[C@H]1c1ccccc1 (stereo partly shown) [Example I-84] |  | 1000 to 10000 |  | 1000 to 10000 | +++ (≥350) | 100 to 200 |  |  |  | 
23 | CC(C)(C)[C@@H]1[C@@H](Nc2nccc(C(F)(F)F)n2)[C@@H](c2ccccc2)N(C(=O)C2CCCCC2)[C@H]1C(=O)O (racemic) [Example I-5] |  | 1000 to 10000 |  | 1000 to 10000 | +++ (≥350) | < 100 |  |  |  | 
24 | COc1ncc(C2CCCC2)cc1CN[C@H]1[C@H](C(C)(C)OC)[C@@H](C(=O)O)N(C(=O)C2CCCCC2)[C@H]1c1ccccc1 [Example I-116] |  | < 1000 |  | < 1000 | +++ (≥350) | 100 to 200 |  |  |  | 
25 | COc1ncc(C2CCC2)cc1CN[C@H]1[C@H](C(C)(C)C)[C@@H](C(=O)O)N(C(=O)[C@H]2CCCCO2)[C@H]1c1ccccc1C [Example I-266] |  |  |  |  |  |  | 1000 to 10000 | 1000 to 10000 | +++ (≥350) | > 200
26 | COc1ccc(C(C)(C)C)cc1CN[C@H]1[C@H](C23CC(C2)C3)[C@@H](C(=O)O)N(C(=O)OC(C)C)[C@H]1c1ccccc1 [Example I-226] |  | 1000 to 10000 |  | 1000 to 10000 | +++ (≥350) | > 200 |  |  |  | 
27 | COc1ccc(-c2sc(C)nc2C)cc1CN[C@H]1[C@H](C(C)(C)C)[C@@H](C(=O)O)N(C(=O)C2CCCCC2)[C@H]1c1ccccc1 [Example I-127] |  | 1000 to 10000 |  | 1000 to 10000 | +++ (≥350) | 100 to 200 |  |  |  | 
28 | COc1ccc(S(F)(F)(F)(F)F)cc1CN[C@H]1[C@H](C(C)(C)C)[C@@H](C(=O)O)N(C(=O)OC(C)C)[C@H]1c1cccnc1N(C)C [Example I-245] |  | 1000 to 10000 |  | 1000 to 10000 | +++ (≥350) | > 200 |  |  |  | 
29 | COc1nc(C(C)(C)C)ccc1CN[C@H]1[C@H](C(C)(C)C)[C@@H](C(=O)O)N(C(=O)[C@@H]2CCCCO2)[C@H]1c1ccccc1F [Example I-231] |  | 1000 to 10000 |  | 1000 to 10000 | +++ (≥350) | 100 to 200 |  |  |  | 
30 | COc1ccc(C(C)(C)C)cc1CN[C@H]1[C@H](C(C)(C)C)[C@@H](C(=O)O)N(C(=O)C2CCCCC2)[C@H]1c1cccnc1N(C)C [Example I-52] |  | < 1000 |  | < 1000 | +++ (≥350) | > 200 |  |  |  | 
31 | COc1ccc(C2(C)CCC2)cc1CN[C@H]1[C@H](C(C)(C)C)[C@@H](C(=O)O)N(C(=O)[C@@H]2CCCCO2)[C@H]1c1ccccc1C(C)C [Example I-304] |  |  |  |  |  |  | < 1000 | < 1000 | +++ (≥350) | > 200
